Values after ≈ are worked out from the molar mass of the structure shown. Like-named read-outs stand apart in the source and are kept apart here. Positions of bridges follow the written chain, without caps; N, C: chain ends. Residues, ends and D or L forms follow the SMILES beside them. Chains are numbered I, II in the order given. *: point of attachment. Myristoyl = CCCCCCCCCCCCCC(=O)*; Lauroyl = CCCCCCCCCCCC(=O)*
Tests used:
[1] = system: Methicillin-resistant Staphylococcus aureus (MRSA); type: cell-based
Procedure: (§1) V2-dimer and all lipopeptides (FIG. 1A) used in this study were purchased from Mimotopes. All peptides were prepared by dissolving in sterile water to make 1000 μg/mL stock solutions. Minimum Inhibitory Concentration (MIC) determination was carried out in Mueller Hinton Broth (MHB) using the broth macro-dilution method as described by the Clinical and Laboratory Standards Institute (CLSI). Then, cation-adjusted MHB (CA-MHB) was used to prepare serial two fold dilutions of the compounds in test tubes. The concentration of the inoculums suspension was also adjusted to approximately 5×10^5 Colony Forming Units (CFU)/mL using MHB. Bacteria were incubated with the compounds for 24 hours at 35° C. prior to reading. In this study, Gram-positive strains used were Staphylococcus aureus DM4001 and Methicillin-resistant Staphylococcus aureus (MRSA) DM9808. Gram-negative strains used were Klebsiella pneumoniae DM4299, Pseudomonas aeruginosa ATCC23155 and Escherichia coli ATCC27922.
(§2) Methods used are as described in Example 1 above.

[2] = system: Pseudomonas aeruginosa; type: cell-based
Procedure: as §1, §2

[3] = system: Staphylococcus aureus; type: cell-based
Procedure: as §1, §2

[4] = system: Escherichia coli ATCC27922; type: cell-based
Procedure: as §1

[5] = system: Klebsiella pneumoniae DM4299; type: cell-based
Procedure: as §1

[6] = system: red blood cells (RBCs) of New Zealand white rabbits; test: in vitro; type: cell-based, rabbit
Procedure: Fresh red blood cells (RBCs) of New Zealand white rabbits were used for this experiment. The RBCs obtained were centrifuged at 3000 rpm for 10 min. Supernatant was removed and washed twice with sterile PBS Buffer (20 mM, 100 mM NaCl, pH 7). The RBCs were further diluted to 8% stock solution in PBS. Peptides were dissolved in PBS with desired stock concentrations. When compounds were mixed with RBCs, desired concentration of 4% RBCs was obtained. For C14V2D and C16V2D, they were dissolved in Dimethylformamide ([…]; DMF) with desired stock concentrations. When compounds were mixed with RBCs, desired concentration of 4% RBCs and 0.5% DMF was obtained. DMF concentration of <1% was used as it had negligible hemolytic activity on RBCs. The mixtures were added to 1.5 mL centrifuge tubes and incubated at 37° C. for 1 h. After incubation, the blood was centrifuged at 3000 rpm for 3 min at 4° C. 100 μL of the supernatant was transferred into transparent 96-well plate. The absorbance was measured at 576 nm using a microplate reader (TECAN Infinite 200M Pro). 2% Triton X-100 was used as positive control. PBS was used as negative controls. The amount of hemoglobin released was calculated using the following equation: […]

[7] = system: Klebsiella pneumoniae; type: cell-based
Procedure: The minimum inhibitory concentration (MIC) was determined using the broth microdilution method. Bacterial cells (shown in Table 6) are grown in Mueller Hinton Broth (MHB) overnight. 100 μL of adjusted inoculum in MHB is added to 100 μL of each dilution of peptide or antibiotics dissolved in the broth, so as to yield a final cell density of 10^5 to 10^6 cfu/mL in each well. The plates were incubated at 35° C. for 24 h and the absorbance at 600 nm (OD600) was monitored every 30 minutes. A positive control well contained the broth and organisms (no peptides/antibiotics), and a negative control tube contains only the broth. The MIC of peptides for each clinical isolate or reference organism was recorded as the lowest concentration of peptide/antibiotic that inhibited visible growth of the test organism. To study the effect of Mg2+ on MIC of branched peptides, the concentration of MgCl2 was varied in MHB and the MIC was determined as before.

[8] = system: P. aeruginosa; test: Bacterial viability assay (ED50); type: cell-based, Pseudomonas aeruginosa; conditions: P. aeruginosa ATCC 9027 and ATCC 27853; FIG. 12
Procedure: Cell viability was conducted for two Gram-negative bacteria (Pa 9027 and Pa 27853). The cultures were grown overnight in TS agar and a few isolated colonies were inoculated to achieve a turbidity equivalent to 0.5 McFarland standard. The cell concentration was adjusted to […] with 10 mM phosphate buffer and separated into different tubes to get final concentration of 10^5 CFU/ml. The peptides were added to the individual tubes to obtain concentrations of ⅛ MIC, ¼ MIC, ½ MIC, 1 MIC, 2 MIC and 4 MIC. The tubes were incubated at 37° C. for 22 h. Serial dilution was performed and 100 uL of the suspension was aliquot into MHA plate. The plates were incubated for 24 h at 37° C. for colony counting. Positive control was performed at 0 h and 22 h.

[9] = system: P. aeruginosa; test: Time-kill kinetics assay; type: cell-based, Pseudomonas aeruginosa; conditions: both Pseudomonas strains at 1× and 2×MIC; compared with B2088; FIG. 13
Procedure: The kinetics of bactericidal action was performed by the assay reported before. Briefly, few colonies of overnight grown P. aeruginosa strains were collected from tryptic soy agar plate and suspended US pharmacopeia phosphate buffer (pH 7.2). The suspension was adjusted to an initial inoculum of 10^6 CFU/mL and incubated with various concentrations of B2088 and B2088—99 at 35° C. 0.1 mL aliquots were withdrawn at various time intervals, diluted […] fold using the same buffer, plated on tryptic soy agar plates and incubated at 35° C. The colonies were counted after 24 h incubation and expressed as CFU/mL. Buffer without peptides served as a positive control and % bacterial viability is estimated using the following equation:
Bacterial viability=1−(CFU/mL)peptide/(CFU/mL)control*100

[10] = system: P. aeruginosa ATCC 9027; test: Outer membrane (OM) permeability assay (NPN); type: cell-based, Pseudomonas aeruginosa; conditions: FIG. 14
Procedure: To probe the OM permeability of peptides, a membrane impermeable probe N-phenyl-1-naphthyl amine (NPN) was used in the present study. The overnight cultured P. aeruginosa ATCC 9027 cells were harvested by centrifugation at 3000 rpm, 4° C. The resulting pellet was washed twice and resuspended in 5 mM HEPES buffer (pH 7.2) to OD600 of 0.4. The cells were placed in a 10 mm stirred cuvette and NPN was added to a final concentration of 10 μM. Appropriate concentrations of B2088 was added and the increase in fluorescence intensity was monitored on a Quanta Master fluorescence spectrophotometer (Photon Technology International, New Jersey, USA). The excitation and emission wavelengths were set at 350 and 410 nm with slid widths at 2 and 5 nm, respectively. The % NPN uptake was calculated relative to increase in NPN fluorescence intensity after the addition of 50 μM polymyxin B.

[11] = in vitro; type: cell-based; conditions: human
Procedure: The cytotoxicity of individual compounds screened was determined by the lactate dehydrogenase (LDH) assay. In brief, human corneal fibroblast cells were plated at a density of 10,000 cells per well in a 96-well opaque white plate (SPL Life Sciences Inc). Test compounds of various concentrations and controls were added to appropriate wells such that the final volume is 100 μl in each well. After 4 hours of exposure to the test compounds, the plates were removed from 37° C. incubator and equilibrated to 22° C. for 30 minutes. One hundred microliters of Cyto-TOX One reagent (Promega Inc. USA) was added to each well and the LDH assay was performed according to manufacturer's instructions. Fluorescence was assessed at an excitation wavelength of 560 nm and an emission wavelength of 590 nm using a micro-plate reader (Tecan Infinite 200 Pro, Switzerland). The cells exposed to 1% Triton X-100 were used as a positive control and treated as maximum releasing of LDH. The percent specific cytotoxicity of each compound was determined using the formula below (I=intensity):
% Cytotoxicity=[(Iexperiments)−(Inegative controls)]/[Ipositive controls)−(Inegative controls)]×100

[12] = in vitro; type: cell-based; conditions: human; remark: listed apart in the source
Procedure: Cells were plated at a density of 10,000 cells per well in a 96-well opaque white plate (SPL Life Sciences Inc. Korea). Test compounds of various concentrations and controls were added to appropriate wells such that the final volume is 100 μl in each well. After 4 hours of exposure to the test compounds, the plates were removed from 37° C. incubator and equilibrated to 22° C. for 30 minutes. One hundred microliters of CellTiter-Glo reagent (Promega Inc. USA) was added to each well and the ATP assay was performed according to manufacturer's instructions. Luminescence was assessed using a micro-plate reader (Tecan Infinite 200 Pro, Switzerland). The cells exposed to 1% Triton X-100 were used as a positive control. The percent cell viable of each compound was determined using the formula below (L=Luminescence detected):
% Viability=[(Lnegative controls)−(Lexperiments)]/[(Lnegative controls)−(Lpositive controls)]×100

MIC [1] [µM]	MIC [2] [µM]	MIC [3] [µM]	MIC [4] [µM]	MIC [5] [µM]	HC10 [6]	MIC ([7]; 24 h) [µM]	MIC [7] [µM]	HC10 ([6]; red cells of rabbit, 1 h) [µg/mL]	Compound	ED50 compared with B2088 [8]	kill kinetics [9]	PC50 (concentration for 50% increase in NPN fluorescence intensity) compared with B2088 [10]	CC50 at 4 h [11] [µM]	CC50 at 4 h [12] [µM]
4.71 (≈ 12.5 µg/mL)	4.71 (≈ 12.5 µg/mL)	4.71 (≈ 12.5 µg/mL)	4.71 (≈ 12.5 µg/mL)	4.71 (≈ 12.5 µg/mL)	542.8 ± 53.0 µg/mL				CCCCCCCCCCCC(=O)N[C@@H](CCCNC(=N)N)C(=O)NCC(=O)N[C@@H](CCCNC(=N)N)C(=O)N[C@@H](CCCCN)C(=O)N[C@H](C(=O)N[C@H](C(=O)N[C@@H](CCCNC(=N)N)C(=O)N[C@@H](CCCNC(=N)N)C(=O)NCCCC[C@H](NC(=O)[C@H](CCCNC(=N)N)NC(=O)[C@H](CCCNC(=N)N)NC(=O)[C@@H](NC(=O)[C@@H](NC(=O)[C@H](CCCCN)NC(=O)[C@H](CCCNC(=N)N)NC(=O)CNC(=O)[C@H](CCCNC(=N)N)NC(=O)CCCCCCCCCCC)C(C)C)C(C)C)C(=O)N[C@@H](CCCCN)C(=O)O)C(C)C)C(C)C [Peptide C12-V2D, (C11H23—CO—NH—RGRKVVRR)2KK] (I: Lauroyl-RGRKVVRRKK-OH / II: Lauroyl-RGRKVVRR; amide I:9-II:C)					
2.30 (≈ 6.24 µg/mL)	2.30 (≈ 6.24 µg/mL)	2.30 (≈ 6.24 µg/mL)	1.15 (≈ 3.12 µg/mL)	9.22 (≈ 25 µg/mL)	^b251.82 ± 5.2 ug/mL				CCCCCCCCCCCCCC(=O)N[C@@H](CCCNC(=N)N)C(=O)NCC(=O)N[C@@H](CCCNC(=N)N)C(=O)N[C@@H](CCCCN)C(=O)N[C@H](C(=O)N[C@H](C(=O)N[C@@H](CCCNC(=N)N)C(=O)N[C@@H](CCCNC(=N)N)C(=O)NCCCC[C@H](NC(=O)[C@H](CCCNC(=N)N)NC(=O)[C@H](CCCNC(=N)N)NC(=O)[C@@H](NC(=O)[C@@H](NC(=O)[C@H](CCCCN)NC(=O)[C@H](CCCNC(=N)N)NC(=O)CNC(=O)[C@H](CCCNC(=N)N)NC(=O)CCCCCCCCCCCCC)C(C)C)C(C)C)C(=O)N[C@@H](CCCCN)C(=O)O)C(C)C)C(C)C [Peptide C14-V2D, (C13H23—CO—NH—RGRKVVRR)2KK] (I: Myristoyl-RGRKVVRRKK-OH / II: Myristoyl-RGRKVVRR; amide I:9-II:C; N-terminus and C-terminus assumed)					
5.89 (≈ 12.5 µg/mL)	2.94 (≈ 6.24 µg/mL)	5.66 (≈ 12 µg/mL)		2.94 (≈ 6.24 µg/mL)		2.9 (≈ 6.16 µg/mL)			N=C(N)NCCC[C@H](NC(=O)CNC(=O)CNC(=O)[C@H](CCCCN)NC(=O)[C@H](CCCNC(=N)N)NC(=O)CNC(=O)[C@@H](N)CCCNC(=N)N)C(=O)N[C@@H](CCCNC(=N)N)C(=O)NCCCC[C@H](NC(=O)[C@H](CCCNC(=N)N)NC(=O)[C@H](CCCNC(=N)N)NC(=O)CNC(=O)CNC(=O)[C@H](CCCCN)NC(=O)[C@H](CCCNC(=N)N)NC(=O)CNC(=O)[C@@H](N)CCCNC(=N)N)C(=O)N[C@@H](CCCCN)C(=O)O [Peptide G2D, (RGRKGGRR)2KK] (I: H-RGRKGGRRKK-OH / II: H-RGRKGGRR; amide I:9-II:C; N-terminus and C-terminus assumed)	two times lower	faster kill kinetics	higher		
2.73 (≈ 6.25 µg/mL)	5.46 (≈ 12.5 µg/mL)	5.46 (≈ 12.5 µg/mL)	2.73 (≈ 6.25 µg/mL)	5.46 (≈ 12.5 µg/mL)			2.7 (≈ 6.19 µg/mL)	>2000	CC(C)[C@H](NC(=O)[C@H](CCCCN)NC(=O)[C@H](CCCNC(=N)N)NC(=O)CNC(=O)[C@@H](N)CCCNC(=N)N)C(=O)N[C@H](C(=O)N[C@@H](CCCNC(=N)N)C(=O)N[C@@H](CCCNC(=N)N)C(=O)NCCCC[C@H](NC(=O)[C@H](CCCNC(=N)N)NC(=O)[C@H](CCCNC(=N)N)NC(=O)[C@@H](NC(=O)[C@@H](NC(=O)[C@H](CCCCN)NC(=O)[C@H](CCCNC(=N)N)NC(=O)CNC(=O)[C@@H](N)CCCNC(=N)N)C(C)C)C(C)C)C(=O)N[C@@H](CCCCN)C(=O)O)C(C)C [Peptide V2D, (RGRKVVRR)2KK] (I: H-RGRKVVRRKK-OH / II: H-RGRKVVRR; amide I:9-II:C)				> 1000	> 1000
